The values that follow come from US9580463B2 (BRISTOL-MYERS SQUIBB COMPANY, priority 2013, dated 2017).

SMILES strings stand for the structures. pEC50: −log10 of the molar value. Read-outs that look alike come from different tables or passages of the source.

As usually defined, the pEC50 is −log10 of the EC50, conventionally taken in molar units.

Assay [1] has as its system HCV genotype 1a (H77 strain) replicon in HUH-7 cells. In words: HCV replicon luciferase reporter assay, genotype 1a. In kind it is cell-based. Particulars: Hepatitis C virus, 72 h, genotype 1a replicon, 3 days incubation. The text has this:
An HCV replicon whole cell system was established as described by Lohmann V, Korner F, Koch J, Herian U, Theilmann L, Bartenschlager R., Science 285(5424):110-3 (1999) and modified to introduce a luciferase reporter, as first described by Krieger et al (Krieger N, Lohmann V, and Bartenschlager R, J. Virol. 75(10):4614-4624 (2001)). CDNA encoding a humanized form of the Renilla luciferase gene and a linker sequence fused directly to the 3′-end of the luciferase gene were introduced into the replicon construct using an Asc1 restriction site located in core, directly upstream of the neomycin marker gene. The adaptive mutation at position 1179 (serine to isoleucine) was also introduced (Blight K J, Kolykhalov, A A, Rice, C M, Science 290(5498):1972-1974). A stable cell line constitutively expressing this HCV replicon construct was generated by first linearizing plasmid DNAs with ScaI. RNA transcripts were synthesized in vitro using the T7 MegaScript transcription kit (Ambion, Austin, Tex.) according to manufacturer's directions. In vitro transcripts of the cDNA were transfected into the human hepatoma cell line, HUH-7. […] Resulting cell lines were characterized for positive and negative strand RNA production and protein production over time.
A stable HCV replicon luciferase reporter cell line representing the genotype 1a H77 strain (Yanagi M, Purcell R H, Emerson S U, et al. Transcripts from a single full-length cDNA clone of hepatitis C virus are infectious when directly transfected into the liver of a chimpanzee. Proc Natl Acad Sci USA 1997; 94(16):8738-8743) was generated as described previously for the genotype 1b (Con1) replicon luciferase cell line. The replicon construct was modified by introducing mutations were introduced into the genes encoding the NS3 helicase domain (proline replaced by leucine at position 1496) and NS5A (serine to isoleucine at position 2204) to improve replication in cell culture.
HCV replicon luciferase assays were developed to monitor the inhibitory effects of compounds described in the disclosure on HCV genotypes 1a and 1b viral replication. HUH-7 cells, constitutively expressing the HCV replicon, were grown in Dulbecco's Modified Eagle Media (DMEM) (Gibco-BRL) containing 10% Fetal calf serum (FCS) (Sigma) and 1 mg/mL G418 (Gibco-BRL). Compounds were serially diluted 3 folds in DMSO for a twenty-point titration and subsequently transferred to sterile 384-well tissue-culture treated plates (Corning cat #3571). The plates were then seeded with 50 μL of cells at a density of 3.0×10^3 cells/well in DMEM containing 4% FCS (final DMSO concentration at 0.5%). After 3 days incubation at 37° C., cells were analyzed for Renilla Luciferase activity using the EnduRen as substrate (Promega cat #E6485). The EnduRen substrate was diluted in DMEM and then added to the plates to a final concentration of 7.5 μM. The plates were incubated for 2 hrs at 37° C. and then read immediately for 30 seconds with Viewlux Imager (PerkinElmer) using a luminescence program. To assess cytotoxicity of compounds, CC50 values were generated by multiplexing the EnduRen-containing plates with Cell Titer-Blue (Promega, cat # G8082). Cell-Titer Blue (3 μL) was added to each well and incubated for 8 hrs at 37° C. The fluorescence signal from each well was read, with an excitation wavelength at 525/10 nm and an emission wavelength of 598/10 nm, using the Viewlux Imager.
The EC50 values for compounds were calculated by using a four-parameter logistic equation: y=A+((B−A)/(1+((C/x)^D))), where A and B denotes minimal and maximal % inhibition, respectively, C is the EC50, D is the hill slope and x represents compound concentration.

Assay [2] relates to HCV genotype 1b (Con1) replicon in HUH-7 cells. In words: HCV replicon luciferase reporter assay, genotype 1b. Particulars: Hepatitis C virus, 72 h, genotype 1b replicon, 3 days incubation. In kind it is cell-based. The method, boiled down: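 Twenty-point, threefold compound titrations (0.5% DMSO) were incubated 3 days at 37 °C with 3.0×10^3 HUH-7 cells/well in 4% FCS. The cells stably carried luciferase replicons: genotype 1b Con1 (S1179I) or 1a H77 (NS3 P1496L, NS5A S2204I). Renilla signal was read after 2 h with 7.5 μM EnduRen, and EC50 was taken from a four-parameter logistic fit. Cytotoxicity (CC50) was measured by Cell Titer-Blue, 8 h.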
(In antiviral work, replicon cells carry a viral genome segment that copies itself.)

In the case of `COC[C@@H]1C[C@@H](C)CC/C=C\[C@@H]2C[C@@]2(C(=O)NS(=O)(=O)C2(C)CC2)NC(=O)[C@@H]2C[C@@H](Oc3ncc(OC)c4ccccc34)CN2C(=O)[C@H]1NC(=O)OC(C)(C)C` [Compound 1011, tert-butyl ((2R,6S,7R,9S,13aS,14aR,16aS,Z)-2-((4-methoxyisoquinolin-1-yl)oxy)-7-(methoxymethyl)-9-methyl-14a-(((1-methylcyclopropyl)sulfonyl)carbamoyl)-5,16-dioxo-1,2,3,5,6,7,8,9,10,11,13a,14,14a,15,16,16a-hexadecahydrocyclopropa[e]pyrrolo[1,2-a][1,4]diazacyclopentadecin-6-yl)carbamate], the negative-log EC50 (pEC50) is 8.30 to 9.00 in assay [1] (read-out: LE_1a (EC50, range)) and 8.30 to 9.00 in assay [2] (read-out: LE_1b (EC50, range)).
As to `COC[C@@H]1C[C@H](C)CC/C=C\[C@@H]2C[C@@]2(C(=O)NS(=O)(=O)C2CC2)NC(=O)[C@@H]2C[C@@H](Oc3ncc(OC)c4ccccc34)CN2C(=O)[C@H]1NC(=O)OC(C)(C)C(F)(F)F` [Compound 1012, 1,1,1-trifluoro-2-methylpropan-2-yl ((2R,6S,7R,9R,13aS,14aR,16aS,Z)-14a-((cyclopropylsulfonyl)carbamoyl)-2-((4-methoxyisoquinolin-1-yl)oxy)-7-(methoxymethyl)-9-methyl-5,16-dioxo-1,2,3,5,6,7,8,9,10,11,13a,14,14a,15,16,16a-hexadecahydrocyclopropa[e]pyrrolo[1,2-a][1,4]diazacyclopentadecin-6-yl)carbamate], the negative logarithm of the EC50 (pEC50) is 9.00 to 9.29 in assay [1] (read-out: LE_1a (EC50, range)) and 9.30 to 10.00 in assay [2] (read-out: LE_1b (EC50, range)).
For `COC[C@@H]1C[C@@H](C)CC/C=C\[C@@H]2C[C@@]2(C(=O)NS(=O)(=O)C2CC2)NC(=O)[C@@H]2C[C@@H](Oc3ncc(OC)c4ccccc34)CN2C(=O)[C@H]1NC(=O)OC(C)(C)C(F)(F)F` [Compound 1013, 1,1,1-trifluoro-2-methylpropan-2-yl ((2R,6S,7R,9S,13aS,14aR,16aS,Z)-14a-((cyclopropylsulfonyl)carbamoyl)-2-((4-methoxyisoquinolin-1-yl)oxy)-7-(methoxymethyl)-9-methyl-5,16-dioxo-1,2,3,5,6,7,8,9,10,11,13a,14,14a,15,16,16a-hexadecahydrocyclopropa[e]pyrrolo[1,2-a][1,4]diazacyclopentadecin-6-yl)carbamate], in that order: 8.30 to 9.00 and 8.30 to 9.00.
`COC[C@@H]1C[C@H](C)CC/C=C\[C@@H]2C[C@@]2(C(=O)NS(=O)(=O)C2(C)CC2)NC(=O)[C@@H]2C[C@@H](Oc3nccc4cc(OC)ccc34)CN2C(=O)[C@H]1NC(=O)OC(C)(C)C(F)(F)F` [Compound 1014, 1,1,1-trifluoro-2-methylpropan-2-yl ((2R,6S,7R,9R,13aS,14aR,16aS,Z)-2-((6-methoxyisoquinolin-1-yl)oxy)-7-(methoxymethyl)-9-methyl-14a-(((1-methylcyclopropyl)sulfonyl)carbamoyl)-5,16-dioxo-1,2,3,5,6,7,8,9,10,11,13a,14,14a,15,16,16a-hexadecahydrocyclopropa[e]pyrrolo[1,2-a][1,4]diazacyclopentadecin-6-yl)carbamate]: the negative logarithm of the EC50 (pEC50) is 8.30 to 9.00 in assay [1] (read-out: LE_1a (EC50, range)) and 9.00 to 9.29 in assay [2] (read-out: LE_1b (EC50, range)).
For `COC[C@@H]1C[C@@H](C)CC/C=C\[C@@H]2C[C@@]2(C(=O)NS(=O)(=O)C2(C)CC2)NC(=O)[C@@H]2C[C@@H](Oc3nccc4cc(OC)ccc34)CN2C(=O)[C@H]1NC(=O)OC(C)(C)C(F)(F)F` [Compound 1015, 1,1,1-trifluoro-2-methylpropan-2-yl ((2R,6S,7R,9S,13aS,14aR,16aS,Z)-2-((6-methoxyisoquinolin-1-yl)oxy)-7-(methoxymethyl)-9-methyl-14a-(((1-methylcyclopropyl)sulfonyl)carbamoyl)-5,16-dioxo-1,2,3,5,6,7,8,9,10,11,13a,14,14a,15,16,16a-hexadecahydrocyclopropa[e]pyrrolo[1,2-a][1,4]diazacyclopentadecin-6-yl)carbamate], in that order: 8.30 to 9.00 and 8.30 to 9.00.
With `COC[C@@H]1C[C@H](C)CC/C=C\[C@@H]2C[C@@]2(C(=O)NS(=O)(=O)C2(C)CC2)NC(=O)[C@@H]2C[C@@H](Oc3ncc(OC)c4ccccc34)CN2C(=O)[C@H]1NC(=O)OC(C)(C)C(F)(F)F` [Compound 1016, 1,1,1-trifluoro-2-methylpropan-2-yl ((2R,6S,7R,9R,13aS,14aR,16aS,Z)-2-((4-methoxyisoquinolin-1-yl)oxy)-7-(methoxymethyl)-9-methyl-14a-(((1-methylcyclopropyl)sulfonyl)carbamoyl)-5,16-dioxo-1,2,3,5,6,7,8,9,10,11,13a,14,14a,15,16,16a-hexadecahydrocyclopropa[e]pyrrolo[1,2-a][1,4]diazacyclopentadecin-6-yl)carbamate], the pEC50 in assay [1] (read-out: LE_1a (EC50)) is 9.08; in assay [1] (read-out: LE_1a (EC50, range)), 9.00 to 9.29; in assay [2] (read-out: LE_1b (EC50)) it was 9.59; in assay [2] (read-out: LE_1b (EC50, range)), 9.30 to 10.00.
As for `COC[C@@H]1C[C@@H](C)CC/C=C\[C@@H]2C[C@@]2(C(=O)NS(=O)(=O)C2(C)CC2)NC(=O)[C@@H]2C[C@@H](Oc3ncc(OC)c4ccccc34)CN2C(=O)[C@H]1NC(=O)OC(C)(C)C(F)(F)F` [Compound 1017, 1,1,1-trifluoro-2-methylpropan-2-yl ((2R,6S,7R,9S,13aS,14aR,16aS,Z)-2-((4-methoxyisoquinolin-1-yl)oxy)-7-(methoxymethyl)-9-methyl-14a-(((1-methylcyclopropyl)sulfonyl)carbamoyl)-5,16-dioxo-1,2,3,5,6,7,8,9,10,11,13a,14,14a,15,16,16a-hexadecahydrocyclopropa[e]pyrrolo[1,2-a][1,4]diazacyclopentadecin-6-yl)carbamate], the pEC50 in assay [1] (read-out: LE_1a (EC50, range)) is 8.30 to 9.00; in assay [2] (read-out: LE_1b (EC50, range)), 9.00 to 9.29.
Turning to `COC[C@@H]1C[C@@H](C)CC/C=C\[C@@H]2C[C@@]2(C(=O)NS(=O)(=O)C2CC2)NC(=O)[C@@H]2C[C@@H](Oc3nccc4cc(OC)ccc34)CN2C(=O)[C@H]1NC(=O)OC(C)(C)C(F)(F)F` [Compound 1018, 1,1,1-trifluoro-2-methylpropan-2-yl ((2R,6S,7R,9S,13aS,14aR,16aS,Z)-14a-((cyclopropylsulfonyl)carbamoyl)-2-((6-methoxyisoquinolin-1-yl)oxy)-7-(methoxymethyl)-9-methyl-5,16-dioxo-1,2,3,5,6,7,8,9,10,11,13a,14,14a,15,16,16a-hexadecahydrocyclopropa[e]pyrrolo[1,2-a][1,4]diazacyclopentadecin-6-yl)carbamate], the pEC50 in assay [1] (read-out: LE_1a (EC50, range)) was 8.30 to 9.00; in assay [2] (read-out: LE_1b (EC50, range)) it was 8.30 to 9.00.
In the case of `COC[C@@H]1C[C@H](C)CC/C=C\[C@@H]2C[C@@]2(C(=O)NS(=O)(=O)C2CC2)NC(=O)[C@@H]2C[C@@H](Oc3nccc4cc(OC)ccc34)CN2C(=O)[C@H]1NC(=O)OC(C)(C)C(F)(F)F` [Compound 1019, 1,1,1-trifluoro-2-methylpropan-2-yl ((2R,6S,7R,9R,13aS,14aR,16aS,Z)-14a-((cyclopropylsulfonyl)carbamoyl)-2-((6-methoxyisoquinolin-1-yl)oxy)-7-(methoxymethyl)-9-methyl-5,16-dioxo-1,2,3,5,6,7,8,9,10,11,13a,14,14a,15,16,16a-hexadecahydrocyclopropa[e]pyrrolo[1,2-a][1,4]diazacyclopentadecin-6-yl)carbamate], the negative-log EC50 (pEC50) in assay [1] (read-out: LE_1a (EC50, range)) is 8.30 to 9.00; in assay [2] (read-out: LE_1b (EC50, range)) it was 9.00 to 9.29.
